Data: patent publication US20210070748A1, “INHIBITORS OF BRUTONS TYROSINE KINASE” (Pharmacyclics LLC, priority 2015, published 2021)

How the values were obtained:
TEC = molecular target: T1, TEC (Homo sapiens, UniProt P42680); experiment: Inhibition of a panel of kinases, in vitro HotSpot kinase assay: TEC; type: biochemical; conditions: D-compounds panel data; 1 μM ATP
T1 sequence (P42680 1-631): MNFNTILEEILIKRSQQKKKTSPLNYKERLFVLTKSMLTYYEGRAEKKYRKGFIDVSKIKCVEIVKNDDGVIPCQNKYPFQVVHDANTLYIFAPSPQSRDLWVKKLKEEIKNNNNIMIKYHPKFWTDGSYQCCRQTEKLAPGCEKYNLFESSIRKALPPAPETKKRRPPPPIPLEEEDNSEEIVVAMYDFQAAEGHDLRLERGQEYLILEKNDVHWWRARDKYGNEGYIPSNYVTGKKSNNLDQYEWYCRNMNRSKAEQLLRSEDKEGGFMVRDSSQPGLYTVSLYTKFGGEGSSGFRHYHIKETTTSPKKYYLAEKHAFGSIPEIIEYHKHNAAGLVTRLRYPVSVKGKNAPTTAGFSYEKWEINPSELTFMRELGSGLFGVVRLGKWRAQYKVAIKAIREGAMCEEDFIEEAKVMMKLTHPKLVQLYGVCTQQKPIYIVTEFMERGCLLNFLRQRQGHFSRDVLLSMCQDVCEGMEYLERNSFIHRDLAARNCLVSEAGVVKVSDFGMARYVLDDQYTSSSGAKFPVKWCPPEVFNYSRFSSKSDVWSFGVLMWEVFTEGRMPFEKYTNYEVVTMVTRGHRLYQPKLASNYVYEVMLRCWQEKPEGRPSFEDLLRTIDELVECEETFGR
Description: The degree of inhibition of a panel of kinases is determined using the in vitro HotSpot kinase assay (purified enzymes, ^33P-ATP, an appropriate substrate and 1 μM ATP).

JAK3 = molecular target: T2, JAK3 (Homo sapiens, UniProt P52333); experiment: Inhibition of a panel of kinases, in vitro HotSpot kinase assay: JAK3; type: biochemical; conditions: D-compounds panel data; 1 μM ATP; read-out: IC50 JAK3
T2 sequence (P52333 1-1124): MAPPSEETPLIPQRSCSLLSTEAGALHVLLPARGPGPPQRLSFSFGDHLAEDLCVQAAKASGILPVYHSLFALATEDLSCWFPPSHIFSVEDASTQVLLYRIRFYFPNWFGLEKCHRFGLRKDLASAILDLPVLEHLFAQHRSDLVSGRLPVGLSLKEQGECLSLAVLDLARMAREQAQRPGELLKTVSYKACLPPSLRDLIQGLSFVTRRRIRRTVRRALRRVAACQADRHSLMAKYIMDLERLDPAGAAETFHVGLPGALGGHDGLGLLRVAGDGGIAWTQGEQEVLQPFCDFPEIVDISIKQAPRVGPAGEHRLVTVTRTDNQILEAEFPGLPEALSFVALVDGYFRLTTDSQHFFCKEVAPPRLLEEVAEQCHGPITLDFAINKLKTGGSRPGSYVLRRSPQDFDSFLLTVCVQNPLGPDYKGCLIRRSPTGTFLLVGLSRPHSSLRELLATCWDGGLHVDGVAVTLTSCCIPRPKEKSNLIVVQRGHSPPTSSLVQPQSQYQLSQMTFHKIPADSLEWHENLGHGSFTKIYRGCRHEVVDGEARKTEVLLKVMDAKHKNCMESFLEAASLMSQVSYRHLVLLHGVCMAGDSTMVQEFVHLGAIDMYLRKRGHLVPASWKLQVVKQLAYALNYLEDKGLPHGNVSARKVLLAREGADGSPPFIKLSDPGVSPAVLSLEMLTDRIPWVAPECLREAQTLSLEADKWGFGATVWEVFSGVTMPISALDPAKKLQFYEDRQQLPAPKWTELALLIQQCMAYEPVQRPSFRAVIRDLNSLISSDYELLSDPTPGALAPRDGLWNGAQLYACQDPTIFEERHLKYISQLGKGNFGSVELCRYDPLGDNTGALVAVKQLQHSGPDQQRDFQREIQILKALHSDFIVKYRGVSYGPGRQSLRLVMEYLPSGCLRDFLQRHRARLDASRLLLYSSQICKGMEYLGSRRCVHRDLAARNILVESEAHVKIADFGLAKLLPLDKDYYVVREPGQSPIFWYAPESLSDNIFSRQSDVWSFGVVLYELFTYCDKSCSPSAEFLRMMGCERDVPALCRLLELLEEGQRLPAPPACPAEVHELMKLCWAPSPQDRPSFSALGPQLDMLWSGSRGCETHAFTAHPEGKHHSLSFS

| Structure (SMILES) | IC50 (TEC) | IC50 (JAK3) |
| --- | --- | --- |
| C[C@@H]1[C@H](NC(=O)c2ccc(C3CC3)cc2)CCCN1c1cnc(C(N)=O)c(Nc2ccc(OC3CCCN(C)C3)cc2)n1 (stereo partly drawn) [Example D-105, 5-[(2R,3R)-3-(4-cyclopropylbenzamido)-2-methylpiperidin-1-yl]-3-({4-[(1-methylpiperidin-3-yl)oxy]phenyl}amino)pyrazine-2-carboxamide] | ≤ 10 nM | 100 to 1000 nM |
| C[C@@H]1[C@H](NC(=O)c2ccc(C3CC3)cc2)CCCN1c1cnc(C(N)=O)c(Nc2ccc(OC3C[C@H]4CC[C@@H](C3)N4C)cc2)n1 (stereo partly drawn) [Example D-106, 5-[(2R,3R)-3-(4-cyclopropylbenzamido)-2-methylpiperidin-1-yl]-3-[(4-{[(1R,5S)-8-methyl-8-azabicyclo[3.2.1]octan-3-yl]oxy}phenyl)amino]pyrazine-2-carboxamide] | ≤ 10 nM | 100 to 1000 nM |
| CC(=O)NC(C)(C)c1ccc(C(=O)N[C@@H]2CCCN(c3cnc(C(N)=O)c(Nc4cnn(C)c4)n3)[C@@H]2C)cc1 [Example D-107, 5-[(2R,3R)-3-[4-(2-acetamidopropan-2-yl)benzamido]-2-methylpiperidin-1-yl]-3-[(1-methyl-1H-pyrazol-4-yl)amino]pyrazine-2-carboxamide] | ≤ 10 nM | 1000 to 10000 nM |
| C[C@@H]1[C@H](NC(=O)c2ccc(C(C)(C)N(C)C)cc2)CCCN1c1cnc(C(N)=O)c(Nc2cnn(C)c2)n1 [Example D-108, 5-[(2R,3R)-3-{4-[2-(dimethylamino)propan-2-yl]benzamido}-2-methylpiperidin-1-yl]-3-[(1-methyl-1H-pyrazol-4-yl)amino]pyrazine-2-carboxamide] | 10 to 100 nM | > 10000 nM |
| CNC(=O)N[C@@H]1CCCN(c2cnc(C(N)=O)c(Nc3cnn(C)c3)n2)[C@@H]1C [Example D-109, 3-[(1-methyl-1H-pyrazol-4-yl)amino]-5-[(2R,3R)-2-methyl-3-[(methylcarbamoyl)amino]piperidin-1-yl]pyrazine-2-carboxamide] | 10 to 100 nM | 1000 to 10000 nM |
| C[C@@H]1[C@H](NC(=O)N(C)C)CCCN1c1cnc(C(N)=O)c(Nc2ccc(C(=O)N3CCN(C)CC3)cc2)n1 [Example D-110, 5-[(2R,3R)-3-[(dimethylcarbamoyl)amino]-2-methylpiperidin-1-yl]-3-{[4-(4-methylpiperazine-1-carbonyl)phenyl]amino}pyrazine-2-carboxamide] | 100 to 1000 nM | 1000 to 10000 nM |
| C[C@@H]1[C@H](NC(=O)N(C)C)CCCN1c1cnc(C(N)=O)c(Nc2ccc(N3CCN(C)CC3)cc2)n1 [Example D-111, 5-[(2R,3R)-3-[(dimethylcarbamoyl)amino]-2-methylpiperidin-1-yl]-3-{[4-(4-methylpiperazin-1-yl)phenyl]amino}pyrazine-2-carboxamide] | 100 to 1000 nM | 100 to 1000 nM |
| C[C@@H]1[C@H](NC(=O)c2ccc(C3CC3)cc2)CCCN1c1cnc(C(N)=O)c(Nc2ccc(C3(C)CCN(C4CCCC4)CC3)cc2)n1 [Example D-112, 3-{[4-(1-cyclopentyl-4-methylpiperidin-4-yl)phenyl]amino}-5-[(2R,3R)-3-(4-cyclopropylbenzamido)-2-methylpiperidin-1-yl]pyrazine-2-carboxamide] | ≤ 10 nM | 100 to 1000 nM |
| C[C@@H]1[C@H](NC(=O)c2ccc(C3CC3)cc2F)CCCN1c1cnc(C(N)=O)c(Nc2ccc(CN3CCN(C)CC3)cc2)n1 [Example D-113, 5-[(2R,3R)-3-(4-cyclopropyl-2-fluorobenzamido)-2-methylpiperidin-1-yl]-3-({4-[(4-methylpiperazin-1-yl)methyl]phenyl}amino)pyrazine-2-carboxamide] | 10 to 100 nM | 100 to 1000 nM |
| C[C@@H]1[C@H](NC(=O)c2ccc(C3CC3)cc2F)CCCN1c1cnc(C(N)=O)c(Nc2ccc3ncccc3c2)n1 [Example D-114, 5-[(2R,3R)-3-(4-cyclopropyl-2-fluorobenzamido)-2-methylpiperidin-1-yl]-3-[(quinolin-6-yl)amino]pyrazine-2-carboxamide] | 10 to 100 nM | > 10000 nM |
| Cc1cc(Nc2cc(N3CCC[C@@H](NC(=O)c4ccc(C5CC5)cc4F)[C@H]3C)cnc2C(N)=O)sn1 [Example D-116, 5-[(2R,3R)-3-(4-cyclopropyl-2-fluorobenzamido)-2-methylpiperidin-1-yl]-3-[(3-methyl-1,2-thiazol-5-yl)amino]pyridine-2-carboxamide] | 100 to 1000 nM | 1000 to 10000 nM |
| C[C@@H]1[C@H](NC(=O)c2ccc(C3CC3)cc2F)CCCN1c1cnc(C(N)=O)c(Nc2cnn(C)c2)c1 [Example D-117, 5-[(2R,3R)-3-(4-cyclopropyl-2-fluorobenzamido)-2-methylpiperidin-1-yl]-3-[(1-methyl-1H-pyrazol-4-yl)amino]pyridine-2-carboxamide] | 100 to 1000 nM | 1000 to 10000 nM |
| C[C@@H]1[C@H](NC(=O)N(C)C)CCCN1c1cnc(C(N)=O)c(Nc2cc(CN3CCOCC3)ns2)n1 [Example D-118, 5-[(2R,3R)-3-[(dimethylcarbamoyl)amino]-2-methylpiperidin-1-yl]-3-{[3-(morpholin-4-ylmethyl)-1,2-thiazol-5-yl]amino}pyrazine-2-carboxamide] | 100 to 1000 nM | 1000 to 10000 nM |
| Cc1nsc(Nc2nc(N3CCC[C@@H](NC(=O)N(C)C)[C@H]3C)cnc2C(N)=O)c1C [Example D-119, 3-[(dimethyl-1,2-thiazol-5-yl)amino]-5-[(2R,3R)-3-[(dimethylcarbamoyl)amino]-2-methylpiperidin-1-yl]pyrazine-2-carboxamide] | > 10000 nM | > 10000 nM |
| C[C@@H]1[C@H](NC(=O)N(C)C)CCCN1c1cnc(C(N)=O)c(Nc2ccc(CN3CCN(C)CC3)cc2)c1 [Example D-120, 5-[(2R,3R)-3-[(dimethylcarbamoyl)amino]-2-methylpiperidin-1-yl]-3-({4-[(4-methylpiperazin-1-yl)methyl]phenyl}amino)pyridine-2-carboxamide] | > 10000 nM | 1000 to 10000 nM |
| C[C@@H]1[C@H](NC(=O)N(C)C)CCCN1c1cnc(C(N)=O)c(Nc2ccc3cccnc3c2)n1 [Example D-121, 5-[(2R,3R)-3-[(dimethylcarbamoyl)amino]-2-methylpiperidin-1-yl]-3-[(quinolin-7-yl)amino]pyrazine-2-carboxamide] | 1000 to 10000 nM | 1000 to 10000 nM |
| C[C@@H]1[C@H](NC(=O)c2ccc(C3CC3)cc2F)CCCN1c1cnc(C(N)=O)c(Nc2cc(CN(C)C)ns2)n1 [Example D-122, 5-[(2R,3R)-3-(4-cyclopropyl-2-fluorobenzamido)-2-methylpiperidin-1-yl]-3-({3-[(dimethylamino)methyl]-1,2-thiazol-5-yl}amino)pyrazine-2-carboxamide] | 10 to 100 nM | 1000 to 10000 nM |
| CC(C)n1cc(Nc2nc(N3CCC[C@@H](NC(=O)c4ccc(C5CC5)cc4F)[C@H]3C)cnc2C(N)=O)cn1 [Example D-123, 5-[(2R,3R)-3-(4-cyclopropyl-2-fluorobenzamido)-2-methylpiperidin-1-yl]-3-{[1-(propan-2-yl)-1H-pyrazol-4-yl]amino}pyrazine-2-carboxamide] | 10 to 100 nM | > 10000 nM |
| C[C@@H]1[C@H](NC(=O)c2ccc(C3CC3)cc2F)CCCN1c1cnc(C(N)=O)c(Nc2ccc3cccnc3c2)n1 [Example D-124, 5-[(2R,3R)-3-(4-cyclopropyl-2-fluorobenzamido)-2-methylpiperidin-1-yl]-3-[(quinolin-7-yl)amino]pyrazine-2-carboxamide] | 1000 to 10000 nM | > 10000 nM |
